Data: patent publication US20180282331A1, “7-Oxo -6-(sulfooxy)- 1,6-diazabicyclo [3.2.1] octane containing compounds and their use in treatment of bacterial infections (changed by PCT to: 7-OXO -6-(SULFOOXY)- 1,6-DIAZABICYCLO [3.2.1] OCTANE CONTAINING COMPOUNDS AND THEIR USE IN TREATMENT OF BACTERIAL INFECTIONS” (WOCKHARDT LIMITED, priority 2015, published 2018)
Read-outs that look alike come from different tables or passages of the source.

How the values were obtained:
Experiment in all cases: MIC, agar dilution (MHA), compound alone
Type in all cases: cell-based
E. coli 7 MP = settings: E. coli 7 MP, compound alone, MHA, 35° C., 18 hours
Protocol: (§1) The biological activity of representative compounds according to the invention against various bacterial strains was investigated. The Minimum Inhibitory Concentration (MIC) determination for the combinations was carried out in Muller Hinton Agar (MHA) (BD, USA) according to Clinical and Laboratory Standards Institute (CLSI) recommendations, (Clinical and Laboratory Standards Institute (CLSI), Performance Standards for Antimicrobial Susceptibility Testing, 20th Informational Supplement, M 100-S20, Volume 30, No. 1, 2010). In short, the test strains were adjusted to deliver about 10^4 CFU per spot with a multipoint inoculator (Applied Quality Services, UK). The plates were poured with MHA containing doubling concentration range of representative compounds according to present invention. The plates were inoculated and were incubated at 35° C. for 18 hours. […] The Table 5 depicts the antibacterial activity profile of compounds according to present invention against various multidrug resistant bacterial strains.

E. coli M 50 = settings: E. coli M 50, compound alone, MHA, 35° C., 18 hours
Protocol: as §1

E. coli NCTC 13352 = settings: E. coli NCTC 13352, compound alone, MHA, 35° C., 18 hours
Protocol: as §1

E. coli NCTC 13353 = settings: E. coli NCTC 13353, compound alone, MHA, 35° C., 18 hours
Protocol: as §1

[1] = system: K. pneumoniae ATCC 700603; settings: K. pneumoniae ATCC 700603, compound alone, MHA, 35° C., 18 hours
Protocol: as §1

K. pneumoniae H521 = settings: K. pneumoniae H521, compound alone, MHA, 35° C., 18 hours
Protocol: as §1

K. pneumoniae H525 = settings: K. pneumoniae H525, compound alone, MHA, 35° C., 18 hours
Protocol: as §1

[2] = Escherichia coli, read-out: MIC
[3] = Escherichia coli, M50, read-out: MIC
[4] = Escherichia coli, NCTC13352, read-out: MIC
[5] = Escherichia coli, NCTC13353, read-out: MIC
[6] = Klebsiella pneumoniae, ATCC700603, read-out: MIC
[7] = Klebsiella pneumoniae, read-out: MIC

Compound | MIC (E. coli 7 MP; [2]) [µg/mL] | MIC (E. coli M 50; [3]) [µg/mL] | MIC (E. coli NCTC 13352; [4]) [µg/mL] | MIC (E. coli NCTC 13353; [5]) [µg/mL] | MIC [1, 6] [µg/mL] | MIC (K. pneumoniae H521; [7]) [µg/mL] | MIC (K. pneumoniae H525; [7]) [µg/mL] | MIC (E. coli 7 MP) [µg/mL] | MIC (E. coli M 50) [µg/mL] | MIC (E. coli NCTC 13352) [µg/mL] | MIC (E. coli NCTC 13353) [µg/mL] | MIC [1] [µg/mL] | MIC (K. pneumoniae H521) [µg/mL] | MIC (K. pneumoniae H525) [µg/mL]
O=C(Cn1ccnc1)NNC(=O)[C@@H]1CC[C@@H]2CN1C(=O)N2OS(=O)(=O)O.[Na] [Example 2, Sodium salt of (2S,5R)-N′-(1H-imidazol-1-ylacetyl)-7-oxo-6-(sulfooxy)-1,6-diazabicyclo[3.2.1]octane-2-carbohydrazide] | – | – | – | – | – | – | – | 1 | 0.5 | 0.5 | 0.25 | >32 | 1 | 1
CCOC(=O)c1nnnn1CC(=O)NNC(=O)[C@@H]1CC[C@@H]2CN1C(=O)N2OS(=O)(=O)[O-].[Na+] [Example 5] | 2 | 1 | 0.5 | 0.5 | > 32 | 2 | 2 | – | – | – | – | – | – | –
O=C(Cn1ccnn1)NNC(=O)[C@@H]1CC[C@@H]2CN1C(=O)N2OS(=O)(=O)[O-].[Na+] [Example 7] | 1 | 0.5 | 0.5 | 0.5 | > 32 | 1 | 1 | – | – | – | – | – | – | –
O=C(Cn1cncn1)NNC(=O)[C@@H]1CC[C@@H]2CN1C(=O)N2OS(=O)(=O)[O-].[Na+] [Example 8] | 2 | 0.5 | 0.5 | 0.5 | > 32 | 1 | 1 | – | – | – | – | – | – | –
O=C(Cn1cccn1)NNC(=O)[C@@H]1CC[C@@H]2CN1C(=O)N2OS(=O)(=O)[O-].[Na+] [Example 11] | 4 | 1 | 1 | 1 | > 32 | 32 | > 32 | – | – | – | – | – | – | –
CCOC(=O)Cc1nnn(CC(=O)NNC(=O)[C@@H]2CC[C@@H]3CN2C(=O)N3OS(=O)(=O)[O-])n1.[Na+] [Example 13] | 2 | 2 | 1 | 1 | > 32 | 32 | 32 | – | – | – | – | – | – | –
NC(=O)Cc1nnnn1CC(=O)NNC(=O)[C@@H]1CC[C@@H]2CN1C(=O)N2OS(=O)(=O)[O-].[Na+] [Example 15] | 1 | 0.5 | 0.5 | 0.5 | > 32 | 2 | 2 | – | – | – | – | – | – | –
O=C(Cn1cccc1)NNC(=O)[C@@H]1CC[C@@H]2CN1C(=O)N2OS(=O)(=O)[O-].[Na+] [Example 18] | 1 | 0.5 | 0.5 | 0.25 | > 32 | 1 | 1 | – | – | – | – | – | – | –
CCOC(=O)c1nccn1CC(=O)NNC(=O)[C@@H]1CC[C@@H]2CN1C(=O)N2OS(=O)(=O)[O-].[Na+] [Example 21] | 4 | 2 | 2 | 2 | > 32 | 8 | 8 | – | – | – | – | – | – | –
Nc1nnnn1CC(=O)NNC(=O)[C@@H]1CC[C@@H]2CN1C(=O)N2OS(=O)(=O)O [Example 24, (2S,5R)-N′-[(5-amino-1H-tetrazol-1-yl)acetyl]-7-oxo-6-(sulfooxy)-1,6-diazabicyclo[3.2.1]octane-2-carbohydrazide] | 2 | 0.5 | 1 | 0.5 | > 32 | 2 | 2 | – | – | – | – | – | – | –
NCCCc1nnnn1CC(=O)NNC(=O)[C@@H]1CC[C@@H]2CN1C(=O)N2OS(=O)(=O)O [Example 31] | 1 | 0.5 | 0.5 | 0.5 | > 32 | 1 | 1 | – | – | – | – | – | – | –
NCCCCc1nnn(CC(=O)NNC(=O)[C@@H]2CC[C@@H]3CN2C(=O)N3OS(=O)(=O)O)n1 [Example 32] | 1 | 0.5 | 0.5 | 0.25 | > 32 | 0.5 | 0.5 | – | – | – | – | – | – | –

Further lines, with some results ahead:

MIC (E. coli 7 MP; [2]) [µg/mL] | MIC (E. coli M 50; [3]) [µg/mL] | MIC (E. coli NCTC 13352; [4]) [µg/mL] | MIC (E. coli NCTC 13353; [5]) [µg/mL] | MIC [1, 6] [µg/mL] | MIC (K. pneumoniae H521; [7]) [µg/mL] | MIC (K. pneumoniae H525; [7]) [µg/mL] | Compound | MIC (E. coli 7 MP) [µg/mL] | MIC (E. coli M 50) [µg/mL] | MIC (E. coli NCTC 13352) [µg/mL] | MIC (E. coli NCTC 13353) [µg/mL] | MIC [1] [µg/mL] | MIC (K. pneumoniae H521) [µg/mL] | MIC (K. pneumoniae H525) [µg/mL]
16 | > 32 | 4 | 32 | 0.5 | 32 | 32 | CO/N=C(\C(=O)N[C@@H]1C(=O)N2C(C(=O)[O-])=C(C[N+]3(C)CCCC3)CS[C@H]12)c1csc(N)n1 [Cefepime, reference compound] | – | – | – | – | – | – | –
1 | 0.5 | 0.5 | 0.5 | > 32 | 1 | 1 | O=C(Cn1ncnn1)NNC(=O)[C@@H]1CC[C@@H]2CN1C(=O)N2OS(=O)(=O)[O-].[Na+] [Example 4] | – | – | – | – | – | – | –
2 | 1 | 1 | 1 | > 32 | 2 | 2 | O=C(Cn1nccn1)NNC(=O)[C@@H]1CC[C@@H]2CN1C(=O)N2OS(=O)(=O)[O-].[Na+] [Example 6] | – | – | – | – | – | – | –
1 | 0.25 | 0.5 | 0.25 | > 32 | 4 | 1 | Cc1nnnn1CC(=O)NNC(=O)[C@@H]1CC[C@@H]2CN1C(=O)N2OS(=O)(=O)[O-].[Na+] [Example 9] | – | – | – | – | – | – | –
2 | 2 | 0.5 | 1 | > 32 | 4 | 4 | CCOC(=O)Cc1nnnn1CC(=O)NNC(=O)[C@@H]1CC[C@@H]2CN1C(=O)N2OS(=O)(=O)[O-].[Na+] [Example 12] | – | – | – | – | – | – | –
1 | 0.5 | 1 | 1 | > 32 | 4 | 4 | NC(=O)Cc1nnn(CC(=O)NNC(=O)[C@@H]2CC[C@@H]3CN2C(=O)N3OS(=O)(=O)[O-])n1.[Na+] [Example 14] | – | – | – | – | – | – | –
2 | 1 | 1 | 1 | > 32 | 2 | 2 | NC(=O)c1nnn(CC(=O)NNC(=O)[C@@H]2CC[C@@H]3CN2C(=O)N3OS(=O)(=O)[O-])n1.[Na+] [Example 16] | – | – | – | – | – | – | –
0.5 | 0.25 | 0.25 | 0.25 | > 32 | 1 | 1 | NC(=O)c1nnnn1CC(=O)NNC(=O)[C@@H]1CC[C@@H]2CN1C(=O)N2OS(=O)(=O)[O-].[Na+] [Example 17] | – | – | – | – | – | – | –
1 | 0.5 | 0.5 | 0.5 | > 32 | 2 | 2 | C[C@@H](C(=O)NNC(=O)[C@@H]1CC[C@@H]2CN1C(=O)N2OS(=O)(=O)[O-])n1ccnc1.[Na+] [Example 20] | – | – | – | – | – | – | –
2 | 0.5 | 1 | 1 | > 32 | 1 | 1 | NCc1nnnn1CC(=O)NNC(=O)[C@@H]1CC[C@@H]2CN1C(=O)N2OS(=O)(=O)O [Example 25] | – | – | – | – | – | – | –
1 | 0.5 | 0.5 | 0.5 | > 32 | 1 | 1 | NCc1nnn(CC(=O)NNC(=O)[C@@H]2CC[C@@H]3CN2C(=O)N3OS(=O)(=O)O)n1 [Example 26] | – | – | – | – | – | – | –
2 | 1 | 1 | 1 | > 32 | 2 | 2 | Nc1ncn(CC(=O)NNC(=O)[C@@H]2CC[C@@H]3CN2C(=O)N3OS(=O)(=O)O)n1 [Example 27] | – | – | – | – | – | – | –
1 | 0.25 | 0.5 | 0.25 | > 32 | 0.5 | 0.5 | NCCc1nnn(CC(=O)NNC(=O)[C@@H]2CC[C@@H]3CN2C(=O)N3OS(=O)(=O)O)n1 [Example 28] | – | – | – | – | – | – | –
1 | 0.5 | 0.5 | 0.25 | > 32 | 0.5 | 0.5 | NCCCc1nnn(CC(=O)NNC(=O)[C@@H]2CC[C@@H]3CN2C(=O)N3OS(=O)(=O)O)n1 [Example 30] | – | – | – | – | – | – | –
1 | 0.5 | 1 | 0.5 | > 32 | 4 | 0.5 | NCCCCc1nnnn1CC(=O)NNC(=O)[C@@H]1CC[C@@H]2CN1C(=O)N2OS(=O)(=O)O [Example 33] | – | – | – | – | – | – | –
